# Measured values taken from patent US20030083271A1, “Topoisomerase I selective cytotoxic sugar derivatives of indolopyrrolocarbazoles” (priority 2001, published 2003).
# How the values were obtained:
# [1] = biological target: T1, purified human topoisomerase I (Homo sapiens, UniProt P11387); assay: Topoisomerase I-mediated single strand DNA break induction (in vitro); format: biochemical; details: median effect concentration for inducing single-strand breaks in the DNA substrate; read-out: Topo I EC50
# T1 construct: purchased Topogen
# T1 sequence (P11387 1-765): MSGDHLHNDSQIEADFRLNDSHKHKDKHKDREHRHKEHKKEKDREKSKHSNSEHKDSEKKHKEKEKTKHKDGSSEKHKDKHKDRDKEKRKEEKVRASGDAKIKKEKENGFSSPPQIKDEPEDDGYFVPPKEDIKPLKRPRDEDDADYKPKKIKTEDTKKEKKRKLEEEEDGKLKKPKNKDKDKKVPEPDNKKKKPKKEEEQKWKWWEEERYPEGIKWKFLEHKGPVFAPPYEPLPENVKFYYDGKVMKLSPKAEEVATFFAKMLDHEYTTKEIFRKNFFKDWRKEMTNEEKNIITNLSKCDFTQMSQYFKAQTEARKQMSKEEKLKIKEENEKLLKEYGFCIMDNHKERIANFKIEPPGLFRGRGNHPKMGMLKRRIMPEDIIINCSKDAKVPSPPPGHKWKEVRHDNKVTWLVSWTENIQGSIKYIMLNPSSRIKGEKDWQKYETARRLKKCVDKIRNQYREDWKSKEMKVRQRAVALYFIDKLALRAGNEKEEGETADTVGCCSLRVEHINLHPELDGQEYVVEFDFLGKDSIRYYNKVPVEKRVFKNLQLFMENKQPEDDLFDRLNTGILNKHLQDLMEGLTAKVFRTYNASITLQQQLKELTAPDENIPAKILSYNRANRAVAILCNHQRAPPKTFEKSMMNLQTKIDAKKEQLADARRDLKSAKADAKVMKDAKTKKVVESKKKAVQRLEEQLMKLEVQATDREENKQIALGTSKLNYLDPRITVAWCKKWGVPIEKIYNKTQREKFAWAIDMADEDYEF
# In short: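 Supercoiled PM2 DNA incubated with compound dilutions and 1000 units purified human topoisomerase I, 30 min at 37° C; stopped with SDS/proteinase K. Products separated on ethidium-stained agarose gel, quantified by densitometry as % single-strand breaks; EC50 interpolated from dose-effect curve.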
# [2] = system: P388 murine leukemia cells; assay: In vitro cell-based cytotoxicity, parental P388 cells; details: Mus musculus, 72 h, median cytotoxic concentration, 3 days continuous exposure
# In short: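 P388 cells plated at 8,000 cells/well, compounds serially diluted 24 h later and incubated 72 h at 37° C. Viability by MTS (333 μg/ml final) with phenazine methosulfate (25 μM final), absorbance at 492 nm; IC50 is concentration reducing absorbance to 50% of untreated control.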
SMILES,EC50 [1],IC50 [2]
"O=C1NC(=O)c2c1c1c3cc(F)c(F)cc3sc1c1c2c2cc(F)c(F)cc2n1[C@@H]1O[C@H](CF)C[C@H](O)[C@H]1O [Example 9, 12-[4,6-Dideoxy-6-fluoro-β-D-glucopyranosyl]-2,3,9,10-tetrafluoro-5H, 13H-benzo[b]thienyl[2,3-a]pyrrolo[3,4-c]carbazole-5,7(6H)-dione]",230 nM,35 nM
"O=C1NC(=O)c2c1c1c3cc(F)ccc3[nH]c1c1c2c2cc(F)ccc2n1[C@@H]1O[C@H](CO)[C@@H](F)[C@H](O)[C@H]1O [Example 24, 12-[4-Deoxy-4-fluoro-β-D-glucopyranosyl]-3,9-difluoro-12,13-dihydro-5H-indolo[2,3-a]pyrrolo[3,4-c]carbazole-5,7(6H)-dione]",20 nM,2 nM
"O=C1NC(=O)c2c1c1c3cc(F)c(F)cc3sc1c1c2c2cc(F)c(F)cc2n1[C@@H]1O[C@H](CF)[C@@H](F)[C@H](O)[C@H]1O [Example 26, 12-[4,6-Difluoro-4,6-dideoxy-β-D-glucopyranosyl]-2,3,9,10-tetrafluoro-5H, 13H-benzo[b]thienyl[2,3-a]pyrrolo[3,4-c]carbazole-5,7(6H)-dione]",130 nM,11 nM
O=C1NC(=O)c2c1c1c3cc(F)ccc3[nH]c1c1c2c2cc(F)ccc2n1[C@@H]1O[C@H](CF)[C@@H](F)[C@H](O)[C@H]1O [Example 27],150 nM,4 nM
"O=C1NC(=O)c2c1c1c3cc(F)c(F)cc3sc1c1c2c2cc(F)c(F)cc2n1[C@@H]1O[C@H](CO)[C@@H](F)[C@H](O)[C@H]1O [Example 33, 12-[4-Deoxy-4-fluoro-β-D-glucopyranosyl]-2,3,9,10-tetrafluoro-5H,13H-benzo[b]thienyl[2,3-a]pyrrolo[3,4-c]carbazole-5,7(6H)-dione]",50 nM,< 3 nM
